Source: patent publication US20240383954A1, “PEPTIDE INHIBITORS OF INTERLEUKIN-23 RECEPTOR AND THEIR USE TO TREAT INFLAMMATORY DISEASES” (Janssen Biotech, Inc., priority 2020, published 2024)
Positions of bridges follow the written chain, without caps; N, C: chain ends. Non-standard residues stand in square brackets, D forms with d. Residues, ends and D or L forms follow the SMILES beside them. *: point of attachment. Trp(7-Me) = Cc1cccc2c(C[C@H](N)C(=O)O)c[nH]c12; 2Nal = N[C@@H](Cc1ccc2ccccc2c1)C(=O)O; AEF = NCCOc1ccc(C[C@H](N)C(=O)O)cc1; αMeF = C[C@](N)(Cc1ccccc1)C(=O)O; Cit = NC(=O)NCCC[C@H](N)C(=O)O; αMeL = CC(C)C[C@](C)(N)C(=O)O; Pen = CC(C)(S)[C@H](N)C(=O)O; Thp = NC1(C(=O)O)CCOCC1; NHBn = c1ccc(CN*)cc1

Molecular target: IL-23R (Homo sapiens, UniProt Q5VWK5)
Assay: cell-based
Conditions: PBMC pSTAT3 IC50 (nM), PBMCs from healthy donors, IL-23 5 ng/mL, 30 minutes, phosphorylated STAT3
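Further: cryopreserved PBMCs stimulated at 37 °C in 5% CO2, then lysed, with phosphorylated STAT3 quantified in lysates using a phospho-STAT panel kit.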

IL-23R, sequence (Q5VWK5 24-629): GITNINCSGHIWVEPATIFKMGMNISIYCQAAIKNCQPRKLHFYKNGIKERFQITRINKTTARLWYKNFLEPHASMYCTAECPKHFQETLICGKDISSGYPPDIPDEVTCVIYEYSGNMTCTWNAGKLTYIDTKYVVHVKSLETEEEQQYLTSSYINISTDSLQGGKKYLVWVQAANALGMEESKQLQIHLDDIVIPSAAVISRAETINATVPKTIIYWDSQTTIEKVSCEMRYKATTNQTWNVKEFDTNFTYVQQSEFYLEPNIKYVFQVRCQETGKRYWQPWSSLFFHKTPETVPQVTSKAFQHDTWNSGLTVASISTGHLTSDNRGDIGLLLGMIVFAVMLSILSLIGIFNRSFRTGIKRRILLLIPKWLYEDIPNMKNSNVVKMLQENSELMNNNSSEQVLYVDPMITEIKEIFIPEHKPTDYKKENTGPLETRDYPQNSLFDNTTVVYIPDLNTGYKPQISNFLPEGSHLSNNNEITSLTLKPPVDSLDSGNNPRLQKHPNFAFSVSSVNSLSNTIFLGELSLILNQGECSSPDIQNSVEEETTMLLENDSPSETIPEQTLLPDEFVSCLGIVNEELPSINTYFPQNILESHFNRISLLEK

Row | Structure (SMILES) | IC50 [nM]
1 | CC(=O)NCCCC[C@@H]1NC(=O)[C@H](Cc2c[nH]c3ccccc23)NC(=O)[C@H]([C@@H](C)O)NC(=O)[C@H](CC(N)=O)NC(=O)[C@@H](NC(=O)[C@@H](CCCNC(=N)N)NC(C)=O)C(C)(C)SSC(C)(C)[C@@H](C(=O)N[C@@H](Cc2ccc(OCCN)cc2)C(=O)N[C@@H](Cc2ccc3ccccc3c2)C(=O)NC2(C(=O)N[C@@H](CCC(=O)O)C(=O)N[C@@H](CC(N)=O)C(=O)NC3(C(N)=O)CCOCC3)CCOCC2)NC1=O [Compound 105, Ac-[(D)Arg]-[Pen]-N-T-W-[Lys(Ac)]-[Pen]-Phe[4-(2-aminoethoxy)]-[2-Nal]-[THP]-E-N-[THP]-NH2] (Ac-[dR][Pen]NTWK(Ac)[Pen][AEF][2Nal][Thp]EN[Thp]-NH2; disulfide 2-7) | 2.2
2 | CC(=O)NCCCC[C@@H]1NC(=O)[C@H](Cc2c[nH]c3ccccc23)NC(=O)[C@H]([C@@H](C)O)NC(=O)[C@H](CC(N)=O)NC(=O)[C@@H](NC(=O)[C@@H](CCCNC(=N)N)NC(C)=O)C(C)(C)SSC(C)(C)[C@@H](C(=O)N[C@@H](Cc2ccc(OCCN)cc2)C(=O)N[C@@H](Cc2ccc3ccccc3c2)C(=O)NC2(C(=O)N[C@@H](CCC(=O)O)C(=O)N[C@@H](CC(N)=O)C(=O)N[C@@](C)(Cc3ccccc3)C(N)=O)CCOCC2)NC1=O [Compound 106, Ac-[(D)Arg]-[Pen]-N-T-W-[Lys(Ac)]-[Pen]-Phe[4-(2-aminoethoxy)]-[2-Nal]-[THP]-E-N-[a-MePhe]-NH2] (Ac-[dR][Pen]NTWK(Ac)[Pen][AEF][2Nal][Thp]EN[αMeF]-NH2; disulfide 2-7) | 13
3 | CC(=O)NCCCC[C@@H]1NC(=O)[C@H](Cc2c[nH]c3c(C)cccc23)NC(=O)[C@H]([C@@H](C)O)NC(=O)[C@H](CC(N)=O)NC(=O)[C@@H](NC(C)=O)C(C)(C)SSC(C)(C)[C@@H](C(=O)N[C@@H](Cc2ccc(OCCN)cc2)C(=O)N[C@@H](Cc2ccc3ccccc3c2)C(=O)N[C@@](C)(CCCCN)C(=O)N[C@@H](CCCCNC(C)=O)C(=O)N[C@@H](CC(N)=O)C(=O)NC2(C(=O)N[C@H](Cc3ccc(O)cc3)C(N)=O)CCOCC2)NC1=O [Compound 107, Ac-[Pen]-N-T-[W(7-Me)]-[Lys(Ac)]-[Pen]-Phe[4-(2-aminoethoxy)]-[2-Nal]-[a-MeLys]-[Lys(Ac)]-N-[THP]-[(D)Tyr]-NH2] | 11
4 | CC(=O)NCCCC[C@H](NC(=O)[C@](C)(CC(C)C)NC(=O)[C@H](Cc1ccc2ccccc2c1)NC(=O)[C@H](Cc1ccc(OCCN)cc1)NC(=O)[C@H]1NC(=O)[C@H](CCCNC(N)=O)NC(=O)[C@H](Cc2c[nH]c3c(C)cccc23)NC(=O)[C@H]([C@@H](C)O)NC(=O)[C@H](CC(N)=O)NC(=O)[C@@H](NC(C)=O)C(C)(C)SSC1(C)C)C(=O)N[C@@H](CC(N)=O)C(=O)NC1(C(N)=O)CCOCC1 [Compound 108, Ac-[Pen]-N-T-[W(7-Me)]-[Cit]-[Pen]-Phe[4-(2-aminoethoxy)]-[2-Nal]-[aMeLeu]-[Lys(Ac)]-N-[THP]-NH2] (Ac-[Pen]NT[Trp(7-Me)][Cit][Pen][AEF][2Nal][αMeL]K(Ac)N[Thp]-NH2; disulfide 1-6) | 5.1
5 | CC(=O)N[C@H](CCCNC(=N)N)C(=O)N[C@@H]1C(=O)N[C@@H](CCC(N)=O)C(=O)N[C@@H]([C@@H](C)O)C(=O)N[C@@H](Cc2c[nH]c3ccccc23)C(=O)N[C@@H](CCC(N)=O)C(=O)N[C@H](C(=O)N[C@@H](Cc2ccc(OCCN)cc2)C(=O)N[C@@H](Cc2ccc3ccccc3c2)C(=O)NC2(C(=O)N[C@@H](CCC(=O)O)C(=O)N[C@@H](CC(N)=O)C(=O)N[C@@H](CC(=O)NCc3ccccc3)C(N)=O)CCOCC2)C(C)(C)SSC1(C)C [Compound 110, Ac-[(D)Arg]-[Pen]-Q-T-W-Q-[Pen]-Phe[4-(2-aminoethoxy)]-[2-Nal]-[THP]-E-N-[(N-benzyl)Asn]-NH2] (Ac-[dR][Pen]QTWQ[Pen][AEF][2Nal][Thp]END(NHBn)-NH2; disulfide 2-7) | 700
6 | CC(=O)NCCCC[C@@H]1NC(=O)[C@H](Cc2c[nH]c3c(C)cccc23)NC(=O)[C@H]([C@@H](C)O)NC(=O)[C@H](CC(N)=O)NC(=O)[C@@H](NC(C)=O)C(C)(C)SSC(C)(C)[C@@H](C(=O)N[C@@H](Cc2ccc(OCCN)cc2)C(=O)N[C@@H](Cc2ccc3ccccc3c2)C(=O)N[C@@](C)(CCCCN)C(=O)N[C@@H](CCCCNC(C)=O)C(=O)N[C@@H](CC(N)=O)C(=O)N[C@@](C)(Cc2ccccc2)C(=O)N[C@H](Cc2ccc(N)cc2)C(N)=O)NC1=O [Compound 114, Ac-[Pen]-N-T-[W(7-Me)]-[Lys(Ac)]-[Pen]-Phe[4-(2-aminoethoxy)]-[2-Nal]-[a-MeLys]-[Lys(Ac)]-N-[a-MePhe]-(D)Phe[4-NH2]-NH2] | 12
7 | CC(=O)NCCCC[C@@H]1NC(=O)[C@H](Cc2c[nH]c3c(C)cccc23)NC(=O)[C@H]([C@@H](C)O)NC(=O)[C@H](CC(N)=O)NC(=O)[C@@H](NC(C)=O)C(C)(C)SSC(C)(C)[C@@H](C(=O)N[C@@H](Cc2ccc(OCCN)cc2)C(=O)N[C@@H](Cc2ccc3ccccc3c2)C(=O)N[C@@](C)(CCCCN)C(=O)N[C@@H](CCCCNC(C)=O)C(=O)N[C@@H](CC(N)=O)C(=O)N[C@@](C)(Cc2ccccc2)C(=O)N[C@H](Cc2cccc(N)c2)C(N)=O)NC1=O [Compound 115, Ac-[Pen]-N-T-[W(7-Me)]-[Lys(Ac)]-[Pen]-Phe[4-(2-aminoethoxy)]-[2-Nal]-[a-MeLys]-[Lys(Ac)]-N-[a-MePhe]-(D)Phe[3-NH2]-NH2] | 39
8 | CC(=O)NCCCC[C@@H]1NC(=O)[C@H](Cc2c[nH]c3c(C)cccc23)NC(=O)[C@H]([C@@H](C)O)NC(=O)[C@H](CC(N)=O)NC(=O)[C@@H](NC(C)=O)C(C)(C)SSC(C)(C)[C@@H](C(=O)N[C@@H](Cc2ccc(OCCN)cc2)C(=O)N[C@@H](Cc2ccc3ccccc3c2)C(=O)N[C@@](C)(CCCCN)C(=O)N[C@@H](CCCCNC(C)=O)C(=O)N[C@@H](CC(N)=O)C(=O)N[C@@](C)(Cc2ccccc2)C(=O)N[C@@H](Cc2cccnc2)C(N)=O)NC1=O [Compound 116, Ac-[Pen]-N-T-[W(7-Me)]-[Lys(Ac)]-[Pen]-Phe[4-(2-aminoethoxy)]-[2-Nal]-[a-MeLys]-[Lys(Ac)]-N-[a-MePhe]-[3Pal]-NH2] | 20
9 | CC(=O)NCCCC[C@@H]1NC(=O)[C@H](Cc2c[nH]c3c(C)cccc23)NC(=O)[C@H]([C@@H](C)O)NC(=O)[C@H](CC(N)=O)NC(=O)[C@@H](NC(C)=O)CSSC[C@@](C)(C(=O)N[C@@H](Cc2ccc(OCCN)cc2)C(=O)N[C@@H](Cc2ccc3ccccc3c2)C(=O)N[C@@](C)(CCCCN)C(=O)N[C@@H](CCCCNC(C)=O)C(=O)N[C@@H](CC(N)=O)C(=O)NC2(C(N)=O)CCOCC2)NC1=O [Compound 117, Ac-[Cys]-N-T-[W(7-Me)]-[Lys(Ac)]-[aMeCys]-Phe[4-(2-aminoethoxy)]-[2-Nal]-[a-MeLys]-[Lys(Ac)]-N-[THP]-NH2] | 7.1
10 | CC(=O)NCCCC[C@@H]1NC(=O)[C@H](Cc2c[nH]c3c(C)cccc23)NC(=O)[C@H]([C@@H](C)O)NC(=O)[C@H](CC(N)=O)NC(=O)[C@@H](NC(C)=O)CSSC[C@@](C)(C(=O)N[C@@H](Cc2ccc(OCCN)cc2)C(=O)N[C@@H](Cc2ccc3ccccc3c2)C(=O)N[C@@](C)(CCCCN)C(=O)N[C@@H](CCCCNC(C)=O)C(=O)N[C@@H](CC(N)=O)C(=O)N[C@@](C)(Cc2ccccc2)C(N)=O)NC1=O [Compound 118, Ac-[Cys]-N-T-[W(7-Me)]-[Lys(Ac)]-[aMeCys]-Phe[4-(2-aminoethoxy)]-[2-Nal]-[a-MeLys]-[Lys(Ac)]-N-[a-MePhe]-NH2] | 30
11 | CC(=O)NCCCC[C@H](NC(=O)[C@](C)(CCCCN)NC(=O)[C@H](Cc1ccc2ccccc2c1)NC(=O)[C@H](Cc1ccc(OCCN)cc1)NC(=O)[C@]1(C)CSSC[C@H](NC(C)=O)C(=O)N[C@@H](CC(N)=O)C(=O)N[C@@H]([C@@H](C)O)C(=O)N[C@@H](Cc2c[nH]c3c(C)cccc23)C(=O)N[C@@H](CCC(N)=O)C(=O)N1)C(=O)N[C@@H](CC(N)=O)C(=O)N[C@@](C)(Cc1ccccc1)C(N)=O [Compound 119, Ac-[Cys]-N-T-[W(7-Me)]-Q-[aMeCys]-Phe[4-(2-aminoethoxy)]-[2-Nal]-[a-MeLys]-[Lys(Ac)]-N-[a-MePhe]-NH2] | 5.3
12 | CC(=O)NCCCC[C@H](NC(=O)[C@](C)(CCCCN)NC(=O)[C@H](Cc1ccc2ccccc2c1)NC(=O)[C@H](Cc1ccc(OCCN)cc1)NC(=O)[C@]1(C)CSSC[C@H](NC(C)=O)C(=O)N[C@@H](CC(N)=O)C(=O)N[C@@H]([C@@H](C)O)C(=O)N[C@@H](Cc2c[nH]c3c(C)cccc23)C(=O)N[C@@H](CCC(N)=O)C(=O)N1)C(=O)N[C@@H](CC(N)=O)C(=O)NC1(C(N)=O)CCOCC1 [Compound 120, Ac-[Cys]-N-T-[W(7-Me)]-Q-[aMeCys]-Phe[4-(2-aminoethoxy)]-[2-Nal]-[a-MeLys]-[Lys(Ac)]-N-[THP]-NH2] | 4.9
13 | CC(=O)NCCCC[C@@H]1NC(=O)[C@H](Cc2c[nH]c3ccccc23)NC(=O)[C@H]([C@@H](C)O)NC(=O)[C@H](CC(N)=O)NC(=O)[C@@H](NC(C)=O)CSSC[C@@](C)(C(=O)N[C@@H](Cc2ccc(OCCN)cc2)C(=O)N[C@@H](Cc2ccc3ccccc3c2)C(=O)N[C@@](C)(CCCCN)C(=O)N[C@@H](CCCCNC(C)=O)C(=O)N[C@@H](CC(N)=O)C(=O)NC2(C(N)=O)CCOCC2)NC1=O [Compound 121, Ac-[Cys]-N-T-W-[Lys(Ac)]-[aMeCys]-Phe[4-(2-aminoethoxy)]-[2-Nal]-[a-MeLys]-[Lys(Ac)]-N-[THP]-NH2] | 41
14 | CC(=O)NCCCC[C@@H]1NC(=O)[C@H](Cc2c[nH]c3ccccc23)NC(=O)[C@H]([C@@H](C)O)NC(=O)[C@H](CC(N)=O)NC(=O)[C@@H](NC(C)=O)CSSC[C@@](C)(C(=O)N[C@@H](Cc2ccc(OCCN)cc2)C(=O)N[C@@H](Cc2ccc3ccccc3c2)C(=O)N[C@@](C)(CCCCN)C(=O)N[C@@H](CCCCNC(C)=O)C(=O)N[C@@H](CC(N)=O)C(=O)N[C@@](C)(Cc2ccccc2)C(N)=O)NC1=O [Compound 122, Ac-[Cys]-N-T-W-[Lys(Ac)]-[aMeCys]-Phe[4-(2-aminoethoxy)]-[2-Nal]-[a-MeLys]-[Lys(Ac)]-N-[a-MePhe]-NH2] | 54
